Data on five compounds can be found in ChEMBL document CHEMBL4602723, “Stalobacin: Discovery of Novel Lipopeptide Antibiotics with Potent Antibacterial Activity against Multidrug-Resistant Bacteria” (J Med Chem, 2020).

Assay [1] relates to Streptococcus pneumoniae. Kind of assay: Antibacterial activity against Streptococcus pneumoniae SR11031 (PRSP) assessed as inhibition of bacterial growth incubated for 20 hrs by microdilution broth method. The format is functional. The following applies: SR11031, 20 h.
For assay [2], the system named is Enterococcus faecium. Kind of assay: Antibacterial activity against Vancomycin-resistant Enterococcus faecium SRM1101 (c_VanB) assessed as inhibition of bacterial growth incubated for 20 hrs by microdilution broth method. It is filed as functional. The following applies: SRM1101, 20 h.
Assay [3] relates to Staphylococcus aureus. Kind of assay: Antibacterial activity against Vancomycin-resistant Staphylococcus aureus HIP11714 assessed as inhibition of bacterial growth incubated for 20 hrs by microdilution broth method. The format is functional. The conditions noted are these: HIP11714, 20 h.
Assay [4] has as its system Staphylococcus aureus. Kind of assay: Induction of morphological changes in Staphylococcus aureus RN4220 assessed as inflation of bacterial cell body. It is filed as functional, organism-based.
In assay [5] the test system is Streptococcus pneumoniae. Kind of assay: Antibacterial activity against Streptococcus pneumoniae tupelo (VTSP) assessed as inhibition of bacterial growth incubated for 20 hrs by microdilution broth method. It is filed as functional.
The test system of assay [6] is Staphylococcus aureus. Kind of assay: Antibacterial activity against Staphylococcus aureus RN4220 assessed as inhibition of bacterial growth incubated for 20 hrs by microdilution broth method. The format is functional. The following applies: RN4220, 20 h.
Assay [7] relates to Enterococcus faecalis. Kind of assay: Antibacterial activity against Vancomycin-resistant Enterococcus faecalis SR23630 (VanB) assessed as inhibition of bacterial growth incubated for 20 hrs by microdilution broth method. The format is functional. The following applies: SR23630, 20 h.
The subject of assay [8] is Enterococcus faecium. In words: Antibacterial activity against Vancomycin-resistant Enterococcus faecium SR7940 (VanA) assessed as inhibition of bacterial growth incubated for 20 hrs by microdilution broth method. The format is functional. The conditions noted are these: SR7940, 20 h.
Assay [9] has as its system Streptococcus pneumoniae. In words: Antibacterial activity against Streptococcus pneumoniae type 1 assessed as inhibition of bacterial growth incubated for 20 hrs by microdilution broth method. It is filed as functional. The following applies: type 1, 20 h.
Assay [10] deals with Staphylococcus aureus. Kind of assay: Antibacterial activity against methicillin-resistant Staphylococcus aureus SR3637 assessed as inhibition of bacterial growth incubated for 20 hrs by microdilution broth method. The format is functional. The conditions noted are these: SR3637, 20 h.
In assay [11] the test system is Staphylococcus aureus. In words: Antibacterial activity against Vancomycin-resistant Staphylococcus aureus HIP11983 assessed as inhibition of bacterial growth incubated for 20 hrs by microdilution broth method. The following applies: HIP11983, 20 h. It is filed as functional.
In assay [12] the test system is Staphylococcus aureus. Kind of assay: Potency index, ratio of MIC for telavancin to MIC for test compound for antibacterial activity against methicillin-resistant Staphylococcus aureus SR3637. It is filed as functional.
Another assay concerns P388. Kind of assay: Cytotoxicity in mouse P388 cells assessed as reduction in cell viability. The format is cell-based.
Assay [13] has as its system Staphylococcus aureus. In words: Antibacterial activity against Staphylococcus aureus SMITH assessed as inhibition of bacterial growth incubated for 20 hrs by microdilution broth method. The format is functional.
The next assay deals with L1210. Kind of assay: Cytotoxicity in mouse L1210 cells assessed as reduction in cell viability. The format is cell-based.
The subject of assay [14] is Enterococcus faecium. Kind of assay: Antibacterial activity against Enterococcus faecium SR16972 assessed as inhibition of bacterial growth incubated for 20 hrs by microdilution broth method. The format is functional. The following applies: SR16972, 20 h.
The test system of another assay is Klebsiella pneumoniae. In words: Antibacterial activity against Klebsiella pneumoniae SR1 assessed as inhibition of bacterial growth incubated for 20 hrs by microdilution broth method. It is filed as functional. The conditions noted are these: SR1, 20 h.
Assay [15] concerns Staphylococcus aureus. Kind of assay: Potency index, ratio of MIC for linezolid to MIC for test compound for antibacterial activity against methicillin-resistant Staphylococcus aureus SR3637. It is filed as functional.
Assay [16] relates to Enterococcus faecium. In words: Antibacterial activity against Vancomycin-resistant Enterococcus faecium SR23598 (VanB) assessed as inhibition of bacterial growth incubated for 20 hrs by microdilution broth method. It is filed as functional. The following applies: SR23598, 20 h.
In assay [17] the test system is Enterococcus faecalis. In words: Antibacterial activity against Enterococcus faecalis SR1004 assessed as inhibition of bacterial growth incubated for 20 hrs by microdilution broth method. The conditions noted are these: SR1004, 20 h. It is filed as functional.
The subject of assay [18] is Enterococcus faecalis. In words: Antibacterial activity against Vancomycin-resistant Enterococcus faecalis SR7914 (VanA) assessed as inhibition of bacterial growth incubated for 20 hrs by microdilution broth method. It is filed as functional. The conditions noted are these: SR7914, 20 h.
The subject of assay [19] is Escherichia coli. Kind of assay: Antibacterial activity against Escherichia coli JC2 assessed as inhibition of bacterial growth incubated for 20 hrs by microdilution broth method. It is filed as functional. The conditions noted are these: JC2, 20 h.
Assay [20] has as its system Escherichia coli. In words: Induction of morphological changes in Escherichia coli JC2 assessed as inflation of bacterial cell body. It is filed as functional, organism-based.
In assay [21] the test system is Staphylococcus aureus. In words: Potency index, ratio of MIC for vancomycin to MIC for test compound for antibacterial activity against methicillin-resistant Staphylococcus aureus SR3637. It is filed as functional.

≈ marks a conversion by molar mass, not a printed value. Calls of active or inactive are those of the source. The rule behind the calls is not given here.

Regarding `CCCCCC/C=C\CCCCC[C@@H]1C[C@H]1/C=C/C(O)C(=O)N[C@H](C(=O)N(C)[C@@H](CC(=O)O)C(=O)N(COC(C)(CC)C(NC(=O)C(NC(=O)[C@@H](N)CC(=O)O)C(O)C(O)CNC(=N)N)C(=O)NCC(=O)N[C@@H](CO)C(=O)O)[C@@]12C[C@@H]1CN(C(=N)N)C2=O)[C@H](O)C(=O)O` (stereo partly drawn), the minimum inhibitory concentration (MIC) in the assay with Streptococcus pneumoniae [1] is not above 0.004 µg/mL; in the assay on Enterococcus faecium [2] it was 0.004 µg/mL (≈ 0.00302 µM); with Staphylococcus aureus [3], 0.004 µg/mL (≈ 0.00302 µM); in the assay on Streptococcus pneumoniae [5], not above 0.004 µg/mL; in the assay with Staphylococcus aureus [6], 0.004 µg/mL (≈ 0.00302 µM); in the assay with Enterococcus faecalis [7], 0.004 µg/mL (≈ 0.00302 µM). The MIC was 0.004 µg/mL (≈ 0.00302 µM) in the assay with Enterococcus faecium [8]; not above 0.004 µg/mL in the assay with Streptococcus pneumoniae [9]; 0.008 µg/mL (≈ 0.00604 µM) with Staphylococcus aureus [10]; 0.004 µg/mL (≈ 0.00302 µM) in the assay on Staphylococcus aureus [11]; 0.004 µg/mL (≈ 0.00302 µM) with Staphylococcus aureus [13]; 0.004 µg/mL (≈ 0.00302 µM) in the assay on Enterococcus faecium [14]. Also, the MIC was 1 µg/mL (≈ 0.754 µM) in the assay on Klebsiella pneumoniae; 0.004 µg/mL (≈ 0.00302 µM) with Enterococcus faecium [16]; 0.008 µg/mL (≈ 0.00604 µM) in the assay on Enterococcus faecalis [17]; 0.016 µg/mL (≈ 0.0121 µM) in the assay with Enterococcus faecalis [18]; 4 µg/mL (≈ 3.02 µM) with Escherichia coli [19]. The outcome with Staphylococcus aureus [4] and in the assay with Escherichia coli [20] was Active. Also, the Ratio with Staphylococcus aureus [12], in the assay on Staphylococcus aureus [15] and in the assay on Staphylococcus aureus [21] was 125 - 250 throughout. Besides, the half-inhibitory concentration (IC50) in the assay on P388 and in the assay with L1210 was more than 12.5 µg/mL throughout.

Take `CCCCCCCCCCNCCN[C@@]1(C)C[C@H](O[C@H]2[C@H](Oc3c4cc5cc3Oc3ccc(cc3Cl)[C@@H](O)[C@@H](NC(=O)[C@@H](CC(C)C)NC)C(=O)N[C@@H](CC(N)=O)C(=O)N[C@H]5C(=O)N[C@H]3C(=O)N[C@H](C(=O)N[C@H](C(=O)O)c5cc(O)c(CNCP(=O)(O)O)c(O)c5-c5cc3ccc5O)[C@H](O)c3ccc(c(Cl)c3)O4)O[C@H](CO)[C@@H](O)[C@@H]2O)O[C@@H](C)[C@H]1O` [TELAVANCIN]: the minimum inhibitory concentration (MIC) in the assay on Streptococcus pneumoniae [1] was not above 0.063 µg/mL; in the assay on Enterococcus faecium [2] it was 8 µg/mL (≈ 4.56 µM); in the assay with Staphylococcus aureus [3], 4 µg/mL (≈ 2.28 µM); in the assay with Streptococcus pneumoniae [5], not above 0.063 µg/mL; in the assay on Staphylococcus aureus [6], 0.5 µg/mL (≈ 0.285 µM); with Enterococcus faecalis [7], 1 µg/mL (≈ 0.57 µM). Further, the MIC with Enterococcus faecium [8] is 8 µg/mL (≈ 4.56 µM); in the assay on Streptococcus pneumoniae [9], not above 0.063 µg/mL; with Staphylococcus aureus [10] it was 1 µg/mL (≈ 0.57 µM); in the assay on Staphylococcus aureus [11], 4 µg/mL (≈ 2.28 µM); with Staphylococcus aureus [13] it was 0.5 µg/mL (≈ 0.285 µM); with Enterococcus faecium [14] it was 0.5 µg/mL (≈ 0.285 µM). Besides, the MIC in the assay on Enterococcus faecium [16] amounted to 0.5 µg/mL (≈ 0.285 µM); in the assay with Enterococcus faecalis [17], 1 µg/mL (≈ 0.57 µM); with Enterococcus faecalis [18], 4 µg/mL (≈ 2.28 µM).

Take `CC(=O)NC[C@H]1CN(c2ccc(N3CCOCC3)c(F)c2)C(=O)O1` [LINEZOLID]: the MIC in the assay with Enterococcus faecium [2], in the assay with Enterococcus faecium [8], with Enterococcus faecium [14] and with Enterococcus faecium [16] was 2 µg/mL (≈ 5.93 µM) in each case.

Consider `CCCCCC/C=C\CCCCC[C@@H]1C[C@H]1/C=C/C(O)C(=O)N[C@H](C(=O)N(C)[C@@H](CC(=O)O)C(=O)N(COC(C)(CC)C(NC(=O)C(NC(=O)[C@@H](N)CC(=O)O)C(O)C(O)CNC(=N)N)C(=O)NCC(=O)N[C@@H](CO)C(=O)O)[C@@]12C[C@@H]1CNC2=O)[C@H](O)C(=O)O` (stereo partly drawn), for which the MIC in the assay on Streptococcus pneumoniae [1] is 0.25 µg/mL (≈ 0.195 µM); in the assay with Enterococcus faecium [2] it was 1 µg/mL (≈ 0.779 µM); with Staphylococcus aureus [3], 0.5 µg/mL (≈ 0.39 µM); with Streptococcus pneumoniae [5] it was not above 0.004 µg/mL; with Staphylococcus aureus [6], 0.5 µg/mL (≈ 0.39 µM); with Enterococcus faecalis [7], more than 64 µg/mL. The MIC with Enterococcus faecium [8] turned out to be 2 µg/mL (≈ 1.56 µM); with Streptococcus pneumoniae [9], 0.25 µg/mL (≈ 0.195 µM); in the assay on Staphylococcus aureus [10] it was 1 µg/mL (≈ 0.779 µM); in the assay with Staphylococcus aureus [11] it was 1 µg/mL (≈ 0.779 µM); in the assay with Staphylococcus aureus [13] it was 0.5 µg/mL (≈ 0.39 µM); in the assay on Enterococcus faecium [14], 4 µg/mL (≈ 3.12 µM). The MIC in the assay on Klebsiella pneumoniae is 2 µg/mL (≈ 1.56 µM); in the assay on Enterococcus faecium [16], 1 µg/mL (≈ 0.779 µM); in the assay on Enterococcus faecalis [17], more than 64 µg/mL; in the assay on Enterococcus faecalis [18] it was more than 64 µg/mL; with Escherichia coli [19] it was 4 µg/mL (≈ 3.12 µM).

For `CN[C@H](CC(C)C)C(=O)N[C@H]1C(=O)N[C@@H](CC(N)=O)C(=O)N[C@H]2C(=O)N[C@H]3C(=O)N[C@H](C(=O)N[C@H](C(=O)O)c4cc(O)cc(O)c4-c4cc3ccc4O)[C@H](O)c3ccc(c(Cl)c3)Oc3cc2cc(c3O[C@@H]2O[C@H](CO)[C@@H](O)[C@H](O)[C@H]2O[C@H]2C[C@](C)(N)[C@H](O)[C@H](C)O2)Oc2ccc(cc2Cl)[C@H]1O` [VANCOMYCIN], the minimum inhibitory concentration (MIC) with Streptococcus pneumoniae [1] was 0.25 µg/mL (≈ 0.173 µM); with Enterococcus faecium [2], more than 64 µg/mL; in the assay with Staphylococcus aureus [3], more than 64 µg/mL; with Streptococcus pneumoniae [5], 0.25 µg/mL (≈ 0.173 µM); in the assay with Enterococcus faecalis [7] it was 32 µg/mL (≈ 22.1 µM); in the assay with Enterococcus faecium [8] it was more than 64 µg/mL. Moreover, the MIC with Streptococcus pneumoniae [9] is 0.5 µg/mL (≈ 0.345 µM); in the assay with Staphylococcus aureus [11], more than 64 µg/mL; in the assay with Klebsiella pneumoniae, more than 64 µg/mL; in the assay on Enterococcus faecium [16] it was more than 64 µg/mL; in the assay on Enterococcus faecalis [17], 1 µg/mL (≈ 0.69 µM); with Enterococcus faecalis [18] it was more than 64 µg/mL. Further, the minimum inhibitory concentration (MIC) in the assay with Escherichia coli [19] was more than 64 µg/mL.
